Laboratory results taken from patent US20240309059A1, “PEPTIDE HAVING ANTI-VIRAL ACTIVITY, ANTI-VIRAL AGENT COMPRISING SAID PEPTIDE, AND METHOD FOR PRODUCING SAID ANTI-VIRAL AGENT” (National University Corporation Tokyo Medical and Dental …, priority 2021, published 2024).
Ends that are not written are not given here.

How the values were obtained:
[1] = test system: SARS-COV-2 Brazilian variant (P.1)
[2] = test system: SARS-COV-2 UK variant (B.1.1.7)
[3] = test system: SARS-COV-2 Indian variant (δ type) (B.1.617.2)
[4] = test system: SARS-COV-2 Omicron (sublineage BA.1) variant (B.1.1.529/BA.1)
[5] = molecular target: receptor binding domain (RBD) in the SARS-COV-2 Indian variant (κ type (B.1.617.1)) (Severe acute respiratory syndrome coronavirus 2, UniProt P0DTC2, E484Q/L452R)
[6] = molecular target: receptor binding domain (RBD) in the SARS-COV-2 UK variant (B.1.1.7) (Severe acute respiratory syndrome coronavirus 2, UniProt P0DTC2, N501Y)
[7] = molecular target: receptor binding domain (RBD) in the SARS-COV-2 Brazilian variant (P.1) (Severe acute respiratory syndrome coronavirus 2, UniProt P0DTC2, E484K/K417T/N501Y)
[8] = molecular target: receptor binding domain (RBD) in the SARS-COV-2 South African variant (B.1.351) (Severe acute respiratory syndrome coronavirus 2, UniProt P0DTC2, E484K/K417N/N501Y)
[9] = molecular target: receptor binding domain (RBD) in the SARS-COV-2 Indian variant (δ type (B.1.617.2)) (Severe acute respiratory syndrome coronavirus 2, UniProt P0DTC2, L452R/T478K)
[10] = molecular target: receptor binding domain (RBD) in the SARS-COV-2 Omicron (sublineage BA.1) variant (B.1.1.529/BA.1) (Severe acute respiratory syndrome coronavirus 2, UniProt P0DTC2, E484A/G339D/G446S/G496S/K417N/N440K/N501Y/Q493R/Q498R/S371L/S373P/S375F/S477N/T478K/Y505H)

Sequence | IC50 [2] [nM] | IC50 [3] [nM] | IC50 [4] [nM] | further results
DKEWILQKIYEIMRRLDEEGHAEASMRVSDLIYEFMKKD [Ce9] | 13 |  |  | IC50 [1]: 1200 nM
DKEWILQKIYEIMRRLDEEGHGEASLRVSDLIYEFMKRD [Ce59] |  | 16 |  | 
DKEWILYKIYEIMVRLDEEGHGEASLMVSDLIYEFMKRD [Ce149] | 0.0021 | 0.15 | 1 | 
DKEWILQKIYEIMRRLDEEGHGEASLRVSDLIYEFMKKD [Ce41] | 0.68 |  |  | binding activity to the receptor binding domain (RBD) [5]: high binding activity; binding activity to the receptor binding domain (RBD) [6]: high binding activity; dissociation from the RBD once bound [6]: does not dissociate at all; binding activity to the receptor binding domain (RBD) [7]: high binding activity; binding activity to the receptor binding domain (RBD) [8]: high binding activity; binding activity to the receptor binding domain (RBD) [9]: high binding activity; binding activity to the receptor binding domain (RBD) [10]: cannot maintain binding
DKLWILQKIYEIMVRLDEEGHGEASLMVSDLIYEFMKRD [Ce172] | 0.0022 | 0.53 | 0.038 | 
